Strand notation (5' to 3'): a small letter for the sugar, then the base; units joined by * are phosphorothioate-linked, units joined directly phosphodiester-linked; [ ] holds rarer units or linkages, { } end groups; capitals alone tell only the bases. e = 2'-O-(2-methoxyethyl) (MOE); [5mC] = 5-methylcytosine; d = 2'-deoxy (DNA)
Tested on: human Factor 7 mRNA
Experiment: Antisense inhibition of human Factor 7 mRNA in HepB3 cells, 50 nM antisense oligonucleotide, lipofectin
Type: cell-based
Settings: for % Inhibition: lipofectin, approximately 24 hours; for % Inhibition of human Factor 7 mRNA levels: gapmers targeted to nucleobases 4868 to 4899 of SEQ ID NO: 1, Table 8
Procedure: Antisense oligonucleotides targeted to a Factor 7 nucleic acid were tested for their effects on Factor 7 mRNA in vitro. Cultured HepB3 cells at a density of 4,000 cells per well were transfected using lipofectin reagent with 50 nM antisense oligonucleotide. After a treatment period of approximately 24 hours, RNA was isolated from the cells and Factor 7 mRNA levels were measured by real-time RT-PCR, as described herein. Factor 7 mRNA levels were adjusted according to total RNA content as measured by RIBOGREEN®. Results are presented as percent inhibition of Factor 7, relative to untreated control cells.
(§1) Antisense oligonucleotides targeted to a Factor 7 nucleic acid were designed and tested for their effects on Factor 7 mRNA in vitro. Certain antisense oligonucleotides from Table 3 were also retested for their effects on Factor 7 mRNA in vitro. Cultured HepB3 cells at a density of 4,000 cells per well were transfected using lipofectin reagent with 50 nM antisense oligonucleotide. After a treatment period of approximately 24 hours, RNA was isolated from the cells and Factor 7 mRNA levels were measured by real-time RT-PCR, as described herein. Human Factor 7 primer probe set RTS 2927 was used to measure mRNA levels. Factor 7 mRNA levels were adjusted according to total RNA content as measured by RIBOGREEN®. Results are presented as percent inhibition of Factor 7, relative to untreated control.
as §1, with “tested” for “tested for their effects on Factor 7 mRNA in vitro. Certain antisense oligonucleotides from Table 3 were also retested”
These gapmers were designed by creating gapmers shifted slightly upstream and downstream (i.e. “microwalk”) of the original gapmers from Table 7. Gapmers were also created with various motifs, e.g. 5-10-5 MOE, 3-14-3 MOE, and 2-13-5 MOE. These gapmers were tested in vitro. Cultured HepB3 cells at a density of 4,000 cells per well were transfected using lipofectin reagent with 50 nM antisense oligonucleotide. After a treatment period of approximately 24 hours, RNA was isolated from the cells and Factor 7 mRNA levels were measured by real-time RT-PCR. Factor 7 mRNA levels were adjusted according to total RNA content, as measured by RIBOGREEN®. Results are presented as percent inhibition of Factor 7, relative to untreated control cells.

[1] = oligonucleotides targeted to nucleobases 11830 to 11869 of SEQ ID NO: 1 (Table 9)
[2] = 50 nM antisense oligonucleotide, Factor 7 mRNA by real-time RT-PCR (RTS 2927), relative to untreated control
[3] = Table 1, 50 nM, relative to untreated control cells

## 422209 (antisense eA*eG*e[5mC]*dA*d[5mC]*dA*d[5mC]*dA*dT*dG*dG*dA*dG*dT*d[5mC]*dA*dG*e[5mC]*eA*eT) [compound 422209]
Oligonucleotides targeted to nucleobases 15098 to 15122 of SEQ ID NO: 1 (Table 12)
  % Inhibition (human Factor 7 mRNA levels): 47%

## 422235 (antisense eA*eT*dG*dG*dT*d[5mC]*dA*dG*dG*dG*d[5mC]*dT*dG*dG*dT*eT*eT*eT*eG*eG) [compound 422235]
[1]
  % Inhibition (human Factor 7 mRNA levels): 50%

## 416432 (antisense eA*eG*e[5mC]*eA*e[5mC]*dT*dG*d[5mC]*dT*d[5mC]*d[5mC]*dT*d[5mC]*d[5mC]*dT*eT*eG*e[5mC]*eA*e[5mC]) [compound 416432]
[2]
  % Inhibition: 44%

## 422090 (antisense eG*eG*eT*e[5mC]*eA*dG*dG*dG*d[5mC]*dT*dG*dG*dT*dT*dT*eT*eG*eG*eA*eG) [compound 422090]
[1]
  % Inhibition (human Factor 7 mRNA levels): 42%

## 407951 (antisense eA*eA*e[5mC]*eA*eG*d[5mC]*dT*dT*dT*dT*dG*dT*dT*dT*dT*eT*eA*eA*eA*eA) [compound 407951]
[3]
  % Inhibition: 0%

## 407651 (antisense eA*eG*e[5mC]*e[5mC]*eT*d[5mC]*dA*dA*dA*d[5mC]*dA*dT*d[5mC]*dT*dA*eT*e[5mC]*eA*eA*eA) [compound 407651]
[3]
  % Inhibition: 32%

## 416564 (antisense eG*e[5mC]*e[5mC]*eA*e[5mC]*dT*d[5mC]*dA*d[5mC]*dA*dG*dA*dA*dA*dG*e[5mC]*eT*eG*eG*eA) [compound 416564]
[2]
  % Inhibition: 0%

## 416560 (antisense eT*eA*eA*eA*eA*d[5mC]*dT*dT*dT*dA*dT*dT*dT*dA*d[5mC]*eA*eA*eG*eA*eG) [compound 416560]
[2]
  % Inhibition: 0%

## 422192 (antisense eG*eA*eG*d[5mC]*dG*d[5mC]*dG*dG*dA*dA*dG*dA*dA*dG*dG*dG*dA*e[5mC]*eG*eG) [compound 422192]
Table 6, 50 nM
  % Inhibition: 27%

## 416544 (antisense eA*eT*e[5mC]*e[5mC]*e[5mC]*dA*dT*dT*dT*dT*d[5mC]*d[5mC]*d[5mC]*dA*dG*eG*eA*eG*e[5mC]*e[5mC]) [compound 416544]
[2]
  % Inhibition: 58%

## 407604 (antisense e[5mC]*eA*e[5mC]*eA*e[5mC]*dT*dG*dG*dT*d[5mC]*d[5mC]*d[5mC]*d[5mC]*dA*dT*e[5mC]*eA*e[5mC]*eT*eG) [compound 407604]
[3]
  % Inhibition: 34%

## 407625 (antisense eT*eT*eG*eT*e[5mC]*dG*dA*dA*dA*d[5mC]*dA*dG*dT*dG*dG*eG*e[5mC]*e[5mC]*eG*e[5mC]) [compound 407625]
[3]
  % Inhibition: 100%

## 416518 (antisense eG*eG*eG*eT*eG*dA*d[5mC]*d[5mC]*dA*d[5mC]*dA*d[5mC]*dA*dT*dT*eT*e[5mC]*e[5mC]*eT*eG) [compound 416518]
[2]
  % Inhibition: 55%

## 416567 (antisense eT*eG*eG*eT*eG*dG*d[5mC]*dA*d[5mC]*d[5mC]*dA*dG*dA*dT*dG*eT*e[5mC]*eT*eG*eA) [compound 416567]
[2]
  % Inhibition: 2%

## 416445 (antisense eT*eA*e[5mC]*eT*eG*d[5mC]*dT*d[5mC]*dA*d[5mC]*dA*dG*d[5mC]*d[5mC]*dG*e[5mC]*e[5mC]*eG*eT*eT) [compound 416445]
[2]
  % Inhibition: 57%

## 422218 (antisense e[5mC]*eG*eA*dG*dT*dT*d[5mC]*dT*dG*d[5mC]*dA*dG*dG*dA*dG*d[5mC]*dG*eG*e[5mC]*e[5mC]) [compound 422218]
  % Inhibition of human Factor 7 mRNA levels: 70%

## 407610 (antisense eA*eG*eG*eG*eA*dG*dG*d[5mC]*dA*dG*dA*dA*dG*d[5mC]*dA*eG*eA*eT*eA*eT) [compound 407610]
[3]
  % Inhibition: 31%

## 416443 (antisense eG*eA*eG*eG*e[5mC]*dA*dG*dA*dA*dG*d[5mC]*dA*dG*dA*dT*eA*eT*eA*eG*eG) [compound 416443]
[2]
  % Inhibition: 17%

## 416566 (antisense eG*eT*eT*eT*eG*dT*dA*dT*dG*dG*dA*dG*dA*dG*dA*e[5mC]*e[5mC]*eA*eA*eT) [compound 416566]
[2]
  % Inhibition: 0%

## 416473 (antisense e[5mC]*e[5mC]*e[5mC]*eT*eG*d[5mC]*d[5mC]*d[5mC]*d[5mC]*dT*d[5mC]*dT*dG*dT*d[5mC]*e[5mC]*eA*eG*e[5mC]*eG) [compound 416473]
[2]
  % Inhibition: 61%

## 407906 (antisense eA*e[5mC]*e[5mC]*eA*e[5mC]*dG*dG*dG*d[5mC]*dT*dG*dG*dT*dG*d[5mC]*eA*eG*eG*e[5mC]*eG) [compound 407906]
[3]
  % Inhibition: 4%

## 416520 (antisense e[5mC]*e[5mC]*e[5mC]*eT*e[5mC]*dT*dG*d[5mC]*dA*dA*dA*dT*dA*dT*dG*eG*eG*eA*e[5mC]*e[5mC]) [compound 416520]
[2]
  % Inhibition: 14%

## 416562 (antisense eA*eA*eA*eG*e[5mC]*dA*dG*dA*dG*d[5mC]*d[5mC]*dA*dG*d[5mC]*dT*e[5mC]*eT*eG*eA*e[5mC]) [compound 416562]
[2]
  % Inhibition: 12%

## 422109 (antisense e[5mC]*e[5mC]*e[5mC]*eG*e[5mC]*d[5mC]*dG*dG*d[5mC]*dT*d[5mC]*dT*dG*d[5mC]*dT*e[5mC]*eA*eT*e[5mC]*e[5mC]) [compound 422109]
Oligonucleotides targeted to nucleobases 13760 to 13789 of SEQ ID NO: 1 (Table 10)
  % Inhibition (human Factor 7 mRNA levels): 68%

## 416471 (antisense eT*eG*eA*eG*e[5mC]*dT*dT*dT*dT*dG*d[5mC]*dA*dG*d[5mC]*d[5mC]*eA*e[5mC]*eT*e[5mC]*eG) [compound 416471]
[2]
  % Inhibition: 62%

## 416482 (antisense e[5mC]*eA*eT*eG*eG*dT*dG*dA*dT*dG*d[5mC]*dT*dT*d[5mC]*dT*eG*eA*eA*eT*eT) [compound 416482]
Table 13 (microwalk), 50 nM
  % Inhibition: 64%
[2]
  % Inhibition: 64%

## 422124 (antisense eT*eG*eA*eG*e[5mC]*dG*d[5mC]*dG*dG*dA*dA*dG*dA*dA*dG*eG*eG*eA*e[5mC]*eG) [compound 422124]
Table 6, 50 nM
  % Inhibition: 0%

## 416465 (antisense e[5mC]*eA*e[5mC]*eT*eG*dT*d[5mC]*d[5mC]*d[5mC]*d[5mC]*d[5mC]*dT*dT*dG*d[5mC]*eA*eG*eG*eA*eG) [compound 416465]
[2]
  % Inhibition: 51%

## 422231 (antisense eT*e[5mC]*dA*dG*dG*dG*d[5mC]*dT*dG*dG*dT*dT*dT*dT*dG*eG*eA*eG*eG*eA) [compound 422231]
[1]
  % Inhibition (human Factor 7 mRNA levels): 22%

## 407944 (antisense e[5mC]*e[5mC]*eA*eG*eT*dG*dG*dG*dT*dG*dG*d[5mC]*dA*dG*dG*e[5mC]*eA*e[5mC]*e[5mC]*eA) [compound 407944]
[3]
  % Inhibition: 59%

## 422298 (antisense eG*e[5mC]*d[5mC]*d[5mC]*dG*dA*dG*dT*dT*d[5mC]*dT*dG*d[5mC]*dA*dG*eG*eA*eG*e[5mC]*eG) [compound 422298]
  % Inhibition of human Factor 7 mRNA levels: 62%

## 422125 (antisense e[5mC]*eT*eG*eA*eG*d[5mC]*dG*d[5mC]*dG*dG*dA*dA*dG*dA*dA*eG*eG*eG*eA*e[5mC]) [compound 422125]
Table 6, 50 nM
  % Inhibition: 8%

## 422106 (antisense e[5mC]*eT*eG*eG*e[5mC]*dT*dG*dA*dG*dG*dA*dG*dA*d[5mC]*dA*eA*eT*eG*eG*eT) [compound 422106]
[1]
  % Inhibition (human Factor 7 mRNA levels): 32%

## 407929 (antisense eG*e[5mC]*eA*eG*eA*dG*d[5mC]*dA*dG*d[5mC]*dA*dG*d[5mC]*d[5mC]*dT*eG*eA*eG*eG*e[5mC]) [compound 407929]
[3]
  % Inhibition: 53%

## 416502 (antisense eG*eT*eT*e[5mC]*eT*dT*dT*dG*dA*dA*dA*dA*dA*dT*dA*eA*eT*e[5mC]*e[5mC]*e[5mC]) [compound 416502]
[2]
  % Inhibition: 22%

## 407660 (antisense eG*e[5mC]*eT*e[5mC]*eT*dG*dA*dA*dG*dT*dA*dG*dA*dT*dG*eA*eT*eG*e[5mC]*e[5mC]) [compound 407660]
[3]
  % Inhibition: 16%

## 422122 (antisense eA*eG*e[5mC]*eG*e[5mC]*dG*dG*dA*dA*dG*dA*dA*dG*dG*dG*eA*e[5mC]*eG*eG*eA) [compound 422122]
Table 6, 50 nM
  % Inhibition: 24%

## 416475 (antisense e[5mC]*eT*e[5mC]*eA*eG*d[5mC]*dT*dG*dG*dG*d[5mC]*dT*dG*dT*d[5mC]*eT*eG*e[5mC]*e[5mC]*eT) [compound 416475]
[2]
  % Inhibition: 70%

Reference: patent publication US9029337B2, “Modulation of factor 7 expression” (Isis Pharmaceuticals, Inc., priority 2007, dated 2015)
